Experimental data from patent US20210403455A1 (priority 2018, published 2021).

System: rice blast
Assay type: cell-based
Conditions: acetone solution at 500 ppm, 1000 μl dropped on oatmeal medium; 8 mm rice blast disc; 25° C. for five days; fungal filament elongation vs acetone-only treatment

For `COc1nc(-c2ccccn2)nc(F)c1C(F)(F)F` [Example 3, 6-fluoro-4-methoxy-2-(2-pyridyl)-5-trifluoromethylpyrimidine], the Preventive value was 80.
